Assay results from PubChem BioAssay AID248 (DTP/NCI, 2004).
“And” between values parts separate entries of the source, which are not always exact repeats. Equal values may be shown once. Toxic doses and inconclusive results are not listed. No stated cut-off is given here; in the data, active means T/C of 150% or more; inactive means T/C below 125%.

Test system: L1210 leukemia ip in BDF1 mice, survival T/C
Assay: NCI In Vivo Anticancer Drug Screen. Data for tumor model L1210 Leukemia (intraperitoneal) in B6D2F1 (BDF1) mice
Settings: endpoint: mean survival time, higher = longer survival
In short: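 Survival endpoint. Drug-treated group vs vehicle group, expressed as T divided by C. Tumor passaged by transplantation.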

[1] = dose: 100.0 mg/kg/injection, schedule: Q01DX001 (ip), vehicle: saline
[2] = dose: 200.0 mg/kg/injection, schedule: Q01DX001 (ip), vehicle: saline
[3] = dose: 400.0 mg/kg/injection, schedule: Q01DX001 (ip), vehicle: saline
[4] = dose: 10.0 mg/kg/injection, schedule: Q01DX001 (ip), vehicle: saline
[5] = dose: 20.0 mg/kg/injection, schedule: Q01DX001 (ip), vehicle: saline
[6] = dose: 40.0 mg/kg/injection, schedule: Q01DX001 (ip), vehicle: saline
[7] = dose: 100.0 mg/kg/injection, schedule: Q01DX009 (ip), vehicle: saline with Tween-80
[8] = dose: 400.0 mg/kg/injection, schedule: Q01DX009 (ip), vehicle: saline with Tween-80
[9] = dose: 5.0 mg/kg/injection, schedule: Q01DX001 (ip), vehicle: saline
[10] = dose: 50.0 mg/kg/injection, schedule: Q01DX009 (ip), vehicle: saline with Tween-80
[11] = dose: 100.0 mg/kg/injection, schedule: Q04DX003 (ip), vehicle: saline with Tween-80
[12] = dose: 200.0 mg/kg/injection, schedule: Q01DX009 (ip), vehicle: saline with Tween-80
[13] = dose: 200.0 mg/kg/injection, schedule: Q04DX003 (ip), vehicle: saline with Tween-80
[14] = dose: 400.0 mg/kg/injection, schedule: Q04DX003 (ip), vehicle: saline with Tween-80
[15] = dose: 100.0 mg/kg/injection, schedule: Q01DX009 (ip), vehicle: Klucel (hydroxypropylcellulose) (HPC)
[16] = dose: 200.0 mg/kg/injection, schedule: Q01DX009 (ip), vehicle: Klucel (hydroxypropylcellulose) (HPC)
[17] = dose: 400.0 mg/kg/injection, schedule: Q01DX009 (ip), vehicle: Klucel (hydroxypropylcellulose) (HPC)
[18] = dose: 100.0 mg/kg/injection, schedule: Q01DX001 (ip), vehicle: saline with Tween-80
[19] = dose: 200.0 mg/kg/injection, schedule: Q01DX001 (ip), vehicle: saline with Tween-80
[20] = dose: 400.0 mg/kg/injection, schedule: Q01DX001 (ip), vehicle: saline with Tween-80
[21] = dose: 100.0 mg/kg/injection, schedule: Q04DX002 (ip), vehicle: saline
[22] = dose: 200.0 mg/kg/injection, schedule: Q04DX002 (ip), vehicle: saline
[23] = dose: 100.0 mg/kg/injection, schedule: Q01DX009 (ip), vehicle: saline
[24] = dose: 100.0 mg/kg/injection, schedule: Q04DX003 (ip), vehicle: saline

Measured: T/C

COCCOC(N)=O
inactive: [1] 105 % of control | [2] 115 % of control | [3] 95 % of control

CN(C)N=Nc1ccc(S(=O)(=O)N(CCCl)CCCl)cc1
inactive: dose: 12.5 mg/kg/injection, schedule: Q04DX002 (ip), vehicle: Klucel (hydroxypropylcellulose) (HPC) 100 % of control | dose: 25.0 mg/kg/injection, schedule: Q04DX002 (ip), vehicle: Klucel (hydroxypropylcellulose) (HPC) 96 % of control | dose: 50.0 mg/kg/injection, schedule: Q04DX002 (ip), vehicle: Klucel (hydroxypropylcellulose) (HPC) 103 % of control | dose: 100.0 mg/kg/injection, schedule: Q04DX002 (ip), vehicle: Klucel (hydroxypropylcellulose) (HPC) 120 % of control | dose: 200.0 mg/kg/injection, schedule: Q04DX002 (ip), vehicle: Klucel (hydroxypropylcellulose) (HPC) 103 % of control | dose: 400.0 mg/kg/injection, schedule: Q04DX002 (ip), vehicle: Klucel (hydroxypropylcellulose) (HPC) 95 % of control

CC1(C)N=C(N)N=C(N)N1c1cccc(OCCOc2ccc(N)cc2)c1
inactive: [4] 94 % of control | [5] 96 % of control | [6] 102 % of control

CC1(C)SC(C(NC(=O)Cc2ccccc2)C(=O)O)NC1C(=O)O (centres undefined)
inactive: [7] 92 % of control | [8] 97 % of control

COc1ccccc1-n1c(O)c(N=Nc2ccccc2C)c(=O)n(-c2ccc(I)cc2)c1=S
inactive: dose: 37.5 mg/kg/injection, schedule: Q01DX001 (ip), vehicle: Klucel (hydroxypropylcellulose) (HPC) 89 % of control | dose: 75.0 mg/kg/injection, schedule: Q01DX001 (ip), vehicle: Klucel (hydroxypropylcellulose) (HPC) 92 % of control | dose: 150.0 mg/kg/injection, schedule: Q01DX001 (ip), vehicle: Klucel (hydroxypropylcellulose) (HPC) 97 % of control

c1ccc2c(c1)ccc1ccc3cccc[n+]3c12
inactive: dose: 1.25 mg/kg/injection, schedule: Q01DX001 (ip), vehicle: saline 93 % of control | dose: 2.5 mg/kg/injection, schedule: Q01DX001 (ip), vehicle: saline 102 % of control | [9] 108 % of control | [4] 102 % of control

OCCOc1c(Cl)cc(Cl)cc1Cl
inactive: [10] 100 % of control | [7] 94 % of control and 100 % of control | [11] 93 % of control | [12] 100 % of control | [13] 90 % of control | [8] 93 % of control | [14] 111 % of control

Oc1cccc2ccc(Cl)nc12
inactive: dose: 75.0 mg/kg/injection, schedule: Q01DX001 (ip), vehicle: carboxymethylcellulose (CMC) 97 % of control | dose: 150.0 mg/kg/injection, schedule: Q01DX001 (ip), vehicle: carboxymethylcellulose (CMC) 101 % of control | dose: 300.0 mg/kg/injection, schedule: Q01DX001 (ip), vehicle: carboxymethylcellulose (CMC) 97 % of control

CCOC(=O)C(CCc1cc2ccccc2[nH]1)(C(=O)OCC)N1C(=O)c2ccccc2C1=O
inactive: [15] 94 % of control | [16] 89 % of control | [17] 89 % of control

CCNC(=O)CCl
inactive: [1] 96 % of control | [2] 104 % of control

Cc1c(C(=O)Nc2ccc(C3=NCCN3)cc2)cccc1C(=O)Nc1ccc(C2=NCCN2)cc1
inactive: dose: 42.0 mg/kg/injection, schedule: Q01DX Z (ip), vehicle: carboxymethylcellulose (CMC) 104 % of control | dose: 85.0 mg/kg/injection, schedule: Q01DX Z (ip), vehicle: carboxymethylcellulose (CMC) 104 % of control

CCCCCCCCCCCCCC(C1CCCCC1)C1CCCCC1
inactive: [18] 113 % of control | [19] 93 % of control | [20] 95 % of control

CCCc1cc(C)cc2nc(-c3ccccc3)oc12
inactive: [11] 101 % of control | [13] 95 % of control | [14] 89 % of control

N=C(N)SCc1ccc(Br)cc1
inactive: [1] 104 % of control | [2] 112 % of control

CCN(CC)c1cc(Cl)c(C=O)cc1[N+](=O)[O-]
inactive: [15] 100 % of control | dose: 100.0 mg/kg/injection, schedule: Q04DX003 (ip), vehicle: Klucel (hydroxypropylcellulose) (HPC) 94 % of control | [16] 107 % of control | dose: 200.0 mg/kg/injection, schedule: Q04DX003 (ip), vehicle: Klucel (hydroxypropylcellulose) (HPC) 96 % of control | [17] 102 % of control | dose: 400.0 mg/kg/injection, schedule: Q04DX003 (ip), vehicle: Klucel (hydroxypropylcellulose) (HPC) 102 % of control

NC(N)=NC(N)=Nc1ccc(S(=O)(=O)c2ccc(N=C(N)N=C(N)N)cc2)cc1
inactive: [7] 95 % of control | [12] 95 % of control

Cc1ccc(C)c(NC(=O)OCc2ccco2)c1
inactive: [18] 97 % of control | [7] 107 % of control and 89 % of control | dose: 100.0 mg/kg/injection, schedule: Q04DX002 (ip), vehicle: saline with Tween-80 93 % of control and 100 % of control | [11] 105 % of control | [19] 95 % of control | [12] 100 % of control and 89 % of control | dose: 200.0 mg/kg/injection, schedule: Q04DX002 (ip), vehicle: saline with Tween-80 96 % of control and 98 % of control | [13] 93 % of control | [20] 95 % of control | [8] 100 % of control and 89 % of control | dose: 400.0 mg/kg/injection, schedule: Q04DX002 (ip), vehicle: saline with Tween-80 93 % of control and 102 % of control | [14] 93 % of control

Cc1ccc(NC(=O)c2cccc(C(=O)Nc3ccc(C)cc3C)c2)c(C)c1
inactive: dose: 12.5 mg/kg/injection, schedule: Q04DX003 (ip), vehicle: saline with Tween-80 98 % of control | dose: 25.0 mg/kg/injection, schedule: Q04DX003 (ip), vehicle: saline with Tween-80 98 % of control | dose: 50.0 mg/kg/injection, schedule: Q04DX003 (ip), vehicle: saline with Tween-80 93 % of control | [13] 87 % of control

CCC1(c2ccccc2)OC1C(=O)OCCC(C)C (centres undefined)
inactive: [21] 93 % of control | [22] 93 % of control | dose: 400.0 mg/kg/injection, schedule: Q04DX002 (ip), vehicle: saline 101 % of control

CCOC(=O)c1ccc(SC(Cl)(Cl)Cl)cc1
inactive: dose: 100.0 mg/kg/injection, schedule: Q01DX001 (ip), vehicle: alcohol 98 % of control | dose: 200.0 mg/kg/injection, schedule: Q01DX001 (ip), vehicle: alcohol 107 % of control | dose: 400.0 mg/kg/injection, schedule: Q01DX001 (ip), vehicle: alcohol 120 % of control

CCN(CC)Cc1cc(Nc2c3ccc([N+](=O)[O-])cc3nc3ccc(OC)cc23)ccc1O
inactive: dose: 50.0 mg/kg/injection, schedule: Q01DX009 (ip), vehicle: saline 95 % of control | [23] 98 % of control and 100 % of control | [24] 95 % of control | dose: 200.0 mg/kg/injection, schedule: Q01DX009 (ip), vehicle: saline 95 % of control and 109 % of control | dose: 200.0 mg/kg/injection, schedule: Q04DX003 (ip), vehicle: saline 95 % of control | dose: 400.0 mg/kg/injection, schedule: Q01DX009 (ip), vehicle: saline 97 % of control | dose: 400.0 mg/kg/injection, schedule: Q04DX003 (ip), vehicle: saline 90 % of control

CCN(CC)CC(=O)NCC(CCN(C)C)(c1ccc2ccccc2c1)C(C)C (centres undefined)
inactive: dose: 25.0 mg/kg/injection, schedule: Q04DX003 (ip), vehicle: saline 99 % of control | dose: 50.0 mg/kg/injection, schedule: Q04DX002 (ip), vehicle: saline 97 % of control | dose: 50.0 mg/kg/injection, schedule: Q04DX003 (ip), vehicle: saline 94 % of control | [23] 98 % of control | [21] 106 % of control | [24] 97 % of control | [22] 86 % of control

O=C(O)CSCCCc1ccccc1
inactive: [10] 101 % of control | [7] 95 % of control | [11] 102 % of control | [12] 101 % of control | [13] 102 % of control | [14] 102 % of control

CCC(CC)COC(=O)CI
inactive: [9] 100 % of control | [4] 100 % of control | [5] 100 % of control | [6] 100 % of control | dose: 80.0 mg/kg/injection, schedule: Q01DX001 (ip), vehicle: saline 100 % of control

O=C(O)CCc1ccsc1
inactive: [1] 94 % of control | [2] 100 % of control | [3] 102 % of control
